Assay results published in patent publication US20230248626A1, “Compositions Comprising (Bio)-Alkanediols” (Symrise AG, priority 0001, published 2023).
Converted amounts (≈) assume the structure as drawn.

Experiments:
Assay type in all cases: cell-based
[1] = tested on: Aspergillus brasiliensis; test: MIC and Kull synergy index of 1,2-/2,3-alkanediol mixtures; details: single 2,3-alkanediol, read-out: MIC Component B
[2] = tested on: Staphylococcus hominis; test: MIC test (growth inhibition, 96 well plates, OD); details: read-out: Minimum Inhibitory Concentration (MIC)
[3] = tested on: Staphylococcus aureus; test: MIC test (growth inhibition, 96 well plates, OD); details: read-out: Minimum Inhibitory Concentration (MIC)
[4] = tested on: Escherichia coli; test: MIC test (growth inhibition, 96 well plates, OD); details: read-out: Minimum Inhibitory Concentration (MIC)
[5] = tested on: Propionibacterium acnes; test: MIC test (growth inhibition, 96 well plates, OD); details: Cutibacterium acnes; read-out: Minimum Inhibitory Concentration (MIC)
[6] = tested on: Candida albicans; test: MIC test (growth inhibition, 96 well plates, OD); details: read-out: Minimum Inhibitory Concentration (MIC)
[7] = tested on: Corynebacterium jeikeium; test: MIC test (growth inhibition, 96 well plates, OD); details: read-out: Minimum Inhibitory Concentration (MIC)
[8] = tested on: Staphylococcus aureus (SA); test: Preservation efficacy test (PET), European Pharmacopoeia 5.1.3
Procedure, shortened: (§1)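 Preparations challenged with prescribed inoculums per European Pharmacopoeia 5.1.3, counting microorganisms after the prescribed time. Adequate preservation means a significant fall or no increase in counts.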

[9] = tested on: Escherichia coli (EC); test: as above
Procedure, shortened: as §1

[10] = tested on: Pseudomonas aeruginosa (PA); test: as above
Procedure, shortened: as §1

[11] = tested on: Candida albicans (CA); test: as above
Procedure, shortened: as §1

[12] = tested on: Aspergillus brasiliensis (AB); test: as above
Procedure, shortened: as §1

Work on CCCCCC(O)C(C)O (stereo not drawn) [2,3-octanediol] yielded an MIC [1] of 2500 µg/mL, an MIC [2] of over 5000 µg/mL and an MIC [3] of 5000 µg/mL (≈ 34.2 mM). The MIC [4] was 2500 µg/mL (≈ 17.1 mM), the MIC [5] was over 5000 µg/mL and the MIC [6] was 5000 µg/mL (≈ 34.2 mM). The MIC [7] was 5000 µg/mL (≈ 34.2 mM), the “number of microorganisms after 2 days” value ([8]; 0.1% in shampoo) was 2,000 and the “number of microorganisms after 7 days” value ([8]; 0.1% in shampoo) was 1. The “number of microorganisms after 14 days” value ([8]; 0.1% in shampoo) was 1, the “number of microorganisms after 28 days” value ([8]; 0.1% in shampoo) was 1 and the “number of microorganisms after 2 days” value ([8]; 0.1% in wet wipes solution) was 50. For the same compound, the “number of microorganisms after 7 days” value ([8]; 0.1% in wet wipes solution) was 50, the “number of microorganisms after 14 days” value ([8]; 0.1% in wet wipes solution) was 50 and the “number of microorganisms after 28 days” value ([8]; 0.1% in wet wipes solution) was 50. For the same compound, the “number of microorganisms after 2 days” value ([8]; 0.2% in o/w emulsion) was 1,300,000, the “number of microorganisms after 7 days” value ([8]; 0.2% in o/w emulsion) was 84,000 and the “number of microorganisms after 14 days” value ([8]; 0.2% in o/w emulsion) was 1. For the same compound, the “number of microorganisms after 28 days” value ([8]; 0.2% in o/w emulsion) was 1, the “number of microorganisms after 2 days” value ([8]; 0.4% in shampoo) was 4,000 and the “number of microorganisms after 7 days” value ([8]; 0.4% in shampoo) was 1. The “number of microorganisms after 14 days” value ([8]; 0.4% in shampoo) was 1, the “number of microorganisms after 28 days” value ([8]; 0.4% in shampoo) was 1 and the “number of microorganisms after 2 days” value ([9]; 0.1% in shampoo) was 2,600,000. The “number of microorganisms after 7 days” value ([9]; 0.1% in shampoo) was 3,800,000, the “number of microorganisms after 14 days” value ([9]; 0.1% in shampoo) was 1,500,000 and the “number of microorganisms after 28 days” value ([9]; 0.1% in shampoo) was 1,300,000. For the same compound, the “number of microorganisms after 2 days” value ([9]; 0.1% in wet wipes solution) was 1,300,000, the “number of microorganisms after 7 days” value ([9]; 0.1% in wet wipes solution) was 2,600,000 and the “number of microorganisms after 14 days” value ([9]; 0.1% in wet wipes solution) was 850,000. The “number of microorganisms after 28 days” value ([9]; 0.1% in wet wipes solution) was 1,600, the “number of microorganisms after 2 days” value ([9]; 0.2% in o/w emulsion) was 48,000 and the “number of microorganisms after 7 days” value ([9]; 0.2% in o/w emulsion) was 290. The “number of microorganisms after 14 days” value ([9]; 0.2% in o/w emulsion) was 1, the “number of microorganisms after 28 days” value ([9]; 0.2% in o/w emulsion) was 1 and the “number of microorganisms after 2 days” value ([9]; 0.4% in shampoo) was 1,100,000. The “number of microorganisms after 7 days” value ([9]; 0.4% in shampoo) was 1,900,000, the “number of microorganisms after 14 days” value ([9]; 0.4% in shampoo) was 2,100,000 and the “number of microorganisms after 28 days” value ([9]; 0.4% in shampoo) was 600,000. For the same compound, the “number of microorganisms after 2 days” value ([10]; 0.1% in shampoo) was 280,000, the “number of microorganisms after 7 days” value ([10]; 0.1% in shampoo) was 3,700,000 and the “number of microorganisms after 14 days” value ([10]; 0.1% in shampoo) was 13,000,000. For the same compound, the “number of microorganisms after 28 days” value ([10]; 0.1% in shampoo) was 8,100,000, the “number of microorganisms after 2 days” value ([10]; 0.1% in wet wipes solution) was 1,300,000 and the “number of microorganisms after 7 days” value ([10]; 0.1% in wet wipes solution) was 630,000. The “number of microorganisms after 14 days” value ([10]; 0.1% in wet wipes solution) was 310,000, the “number of microorganisms after 28 days” value ([10]; 0.1% in wet wipes solution) was 27,000 and the “number of microorganisms after 2 days” value ([10]; 0.2% in o/w emulsion) was 1. The “number of microorganisms after 7 days” value ([10]; 0.2% in o/w emulsion) was 1, the “number of microorganisms after 14 days” value ([10]; 0.2% in o/w emulsion) was 1 and the “number of microorganisms after 28 days” value ([10]; 0.2% in o/w emulsion) was 1. For the same compound, the “number of microorganisms after 2 days” value ([10]; 0.4% in shampoo) was 21,000, the “number of microorganisms after 7 days” value ([10]; 0.4% in shampoo) was 1 and the “number of microorganisms after 14 days” value ([10]; 0.4% in shampoo) was 1. For the same compound, the “number of microorganisms after 28 days” value ([10]; 0.4% in shampoo) was 1, the “number of microorganisms after 2 days” value ([11]; 0.1% in shampoo) was 200,000 and the “number of microorganisms after 7 days” value ([11]; 0.1% in shampoo) was 19,000. For the same compound, the “number of microorganisms after 14 days” value ([11]; 0.1% in shampoo) was 390, the “number of microorganisms after 28 days” value ([11]; 0.1% in shampoo) was 1 and the “number of microorganisms after 2 days” value ([11]; 0.1% in wet wipes solution) was 5,000,000. The “number of microorganisms after 7 days” value ([11]; 0.1% in wet wipes solution) was 2,400,000, the “number of microorganisms after 14 days” value ([11]; 0.1% in wet wipes solution) was 6,900,000 and the “number of microorganisms after 28 days” value ([11]; 0.1% in wet wipes solution) was 5,500,000. The “number of microorganisms after 2 days” value ([11]; 0.2% in o/w emulsion) was 2,000,000, the “number of microorganisms after 7 days” value ([11]; 0.2% in o/w emulsion) was 1,800,000 and the “number of microorganisms after 14 days” value ([11]; 0.2% in o/w emulsion) was 1,900,000. The “number of microorganisms after 28 days” value ([11]; 0.2% in o/w emulsion) was 390,000, the “number of microorganisms after 2 days” value ([11]; 0.4% in shampoo) was 44,000 and the “number of microorganisms after 7 days” value ([11]; 0.4% in shampoo) was 17,000. For the same compound, the “number of microorganisms after 14 days” value ([11]; 0.4% in shampoo) was 510, the “number of microorganisms after 28 days” value ([11]; 0.4% in shampoo) was 1 and the “number of microorganisms after 2 days” value ([12]; 0.1% in shampoo) was 2,300,000. The “number of microorganisms after 7 days” value ([12]; 0.1% in shampoo) was 1,300,000, the “number of microorganisms after 14 days” value ([12]; 0.1% in shampoo) was 250,000 and the “number of microorganisms after 28 days” value ([12]; 0.1% in shampoo) was 250,000. For the same compound, the “number of microorganisms after 2 days” value ([12]; 0.1% in wet wipes solution) was 12,000,000, the “number of microorganisms after 7 days” value ([12]; 0.1% in wet wipes solution) was 8,500,000 and the “number of microorganisms after 14 days” value ([12]; 0.1% in wet wipes solution) was 9,300,000. For the same compound, the “number of microorganisms after 28 days” value ([12]; 0.1% in wet wipes solution) was 12,000,000, the “number of microorganisms after 2 days” value ([12]; 0.2% in o/w emulsion) was 1,700,000 and the “number of microorganisms after 7 days” value ([12]; 0.2% in o/w emulsion) was 2,000,000. The “number of microorganisms after 14 days” value ([12]; 0.2% in o/w emulsion) was 2,100,000, the “number of microorganisms after 28 days” value ([12]; 0.2% in o/w emulsion) was 2,000,000 and the “number of microorganisms after 2 days” value ([12]; 0.4% in shampoo) was 1,100,000. For the same compound, the “number of microorganisms after 7 days” value ([12]; 0.4% in shampoo) was 1,100,000, the “number of microorganisms after 14 days” value ([12]; 0.4% in shampoo) was 2,100,000 and the “number of microorganisms after 28 days” value ([12]; 0.4% in shampoo) was 410,000.
